The subject of assay [1] is anti-AFT B1 aptamer (DNA, aptamer) GTTGGGCACGTGTTGTCTCTCTGTGTCTCGTGCCCTTCGCTAGGCCCACA
The experiment in a line: TIRE/LSPR spectral shift. Conditions: 3 mM MgCl2, Na+ and K+ (HBB: 120 mM NaCl, 5 mM KCl; PBB: 137 mM NaCl, 2.7 mM KCl); HBB or PBB pH 7.4; stated not to bind; concentration tested not stated; immobilised aptamer.

Assay [2] relates to anti-AFT M1 aptamer (DNA, aptamer) ACTGCTAGAGATTTTCCACAT
The experiment in a line: TIRE/LSPR spectral shift. To be noted: 3 mM MgCl2, Na+ and K+ (HBB: 120 mM NaCl, 5 mM KCl; PBB: 137 mM NaCl, 2.7 mM KCl); HBB or PBB pH 7.4; stated not to bind; concentration tested not stated; immobilised aptamer.

With `C[C@@H]1Cc2c(Cl)cc(C(=O)N[C@@H](Cc3ccccc3)C(=O)O)c(O)c2C(=O)O1`, the binding result in assay [1] and in assay [2] was “no” each time.

The values are drawn from article PMC6071250 (2018).
